Measurements reported in paper PMC3006138, “Fexinidazole – A New Oral Nitroimidazole Drug Candidate Entering Clinical Development for the Treatment of Sleeping Sickness” (PLoS Neglected Tropical Diseases, 2010).
Values joined by “and” are separate entries in the source; they are usually repeats but may differ in a detail not shown here. Identical values can stand only once. Like-named read-outs stand apart in the source and are kept apart here.

Columns and labels:
[1] = Dog single-dose IV and oral pharmacokinetics; format: in vivo; settings: for AUC(0-t): read-out: AUC0-t(last); for half-life: read-out: t1/2,z (converted)
Method: Pharmacokinetic Report for the study No. 0320-2007
Fexinidazole was given as IV and oral administrations to male Beagle dogs according to the […]
Dog ID Route Dose Formulation
IV dose was administered via the radial vein, the oral dose was administered by gastric […]
gavage. A washout period of […] was allowed between the IV (Day 1) and oral (Day 12) […]
4.2. Sample Collection and Handling
Blood was withdrawn from jugular vein and collected in heparinized plastic tubes kept on an […]
ice/water bath, then centrifuged at 1200g for 10 minutes at 4°C. Three aliquots of the […]
separated plasma (about 0.2 mL) was stored at -80°C until analysis for Fexinidazole and its […]
sulphone and sulphoxide metabolites. Blood was taken at pre-dose and 0.083 (5 minutes), […]
4.3. Bioanalytical Method
Plasma concentrations of Fexinidazole and its sulphone and sulphoxide metabolites were […]
determined by LC-MS-MS method following plasma protein precipitation. The lower limit […]
of quantification of the bioanalytical method was 5 ng/mL for all analytes. Bioanalytical data […]
Details of the bioanalytical method used are reported in Appendix 2 and analytical […]
performances of calibration standards are reported in Appendix 3.
4.4. Pharmacokinetic Calculations
Pharmacokinetic evaluations of Fexinidazole and sulphone and sulphoxide metabolites were […]
For the calculations, the pre-dose concentrations of Fexinidazole were set equal to C0.083 […]
after IV administration, whilst the pre-dose concentrations of Fexinidazole after oral […]
administration and the pre-dose concentrations of the metabolites after both doses were set […]
Nerviano Medical Sciences
After IV and oral dosing, Cmax (C0.083 for Fexinidazole after IV dosing) and tmax of each […]
concentration. After both doses, for each compound, the area under plasma concentration vs. […]
last detectable concentration. The half-life of the terminal phase, t1/2,z, was determined by […]
linear regression analysis of the natural-log concentration vs. time curve, where t1/2,z = […]
ln(2)/slope of the regression line. […]
infinite time, AUC0-∞, was determined as
AUC0- ∞ = AUC0 − t(last) + Ct(last)⋅ […]
The fraction of AUC0-∞ accounted for by the extrapolated area under the curve was […]
%EXTt (last)− 0∞=100⋅AUCt(last)−∞
After IV dosing, plasma clearance and volume of distribution at steady state of Fexinidazole […]
were calculated as follows:
Vss = CL⋅MRT, where MRT is the mean residence time.
Absolute bioavailability of Fexinidazole was calculated from the ratio of individual oral to […]
IV dose-normalized AUC0-t(last) and AUC0-∞ values.
After both doses, Cmax and AUC values of each compound were also normalized to a 1 […]
pharmacokinetic parameters sorted by compound and route of dosing.
Plasma concentrations and pharmacokinetic parameters of each compound were reported to […]
three significant figures.
5.1.1. Clinical and Physical Examinations
Individual clinical signs are reported in Appendix 4. […]
treatments with Fexinidazole. No meaningful clinical signs were recorded during wash out

monkey hepatocytes = assay: Hepatocyte intrinsic clearance and metabolite profile; format: in vitro ADME, cynomolgus monkey; settings: fexinidazole 10 µM
Method: Fexinidazole was incubated with cryopreserved hepatocytes from male CD-1 mice, male Sprague Dawley rats, male beagle dogs, male cynomolgus monkeys, and from pooled white or African-American human donor samples (purchased commercially), at concentrations of 1 µM and 10 µM. […] The incubated samples were analyzed by LC-MS after extraction into acetonitrile.
A quality control analysis of fexinidazole was performed via 1H-NMR in DMSO and LC- […]
provided by the Swiss Tropical Institute (Basel, Switzerland).
Reagents and solvents were of analytical grade and obtained from Sigma-Aldrich (St. Louis, […]
Cryopreserved hepatocytes from the male CD1 mouse, lot CSI; male Sprague Dawley rat, lot LPL; male beagle dog, lot BWX; male cynomolgus monkey, lot EHH; and pooled human samples, lot MJI, were purchased from In Vitro Technologies Inc (Baltimore, Maryland, […]
5.4. In vitro Incubations
On the day of the experiment a 10 mM stock solution of fexinidazole in DMSO was prepared and, within 3 hours, aliquots of this freshly prepared solution, after suitable dilution, were added to the incubation matrix, to reach fexinidazole final concentrations of 1 and 10 µM. The final percentage of DMSO was 0.01% in the incubation samples for the […]
On the day of experiment, the cryopreserved hepatocytes were thawed following the detailed instructions provided by the supplier.
The number of viable cells was determined using a Trypan Blue exclusion method.
5.4.1. Intrinsic Clearance Study […]
µM with mouse, rat, dog, monkey and human hepatocytes (300000 cells/mL for the mouse and 1 million cells/mL for the other species) in a final incubation volume of 0.75 mL […]
Incubations were performed in duplicate in a 48-well plate under shaking. Sampling was performed using an automatic liquid handling system (Multiprobe II EX, Packard). At 0, 1, 5, 10, 15, 20, 30, 60 and 120 minutes, 50 µL aliquots of the incubates were taken, then 80 µL of ice-cold acetonitrile and 20 µL of 1 µM warfarin in acetonitrile (internal standard) were added, and samples centrifuged at 2000 rpm for 20 min. The supernatant was analyzed by LC-MS/MS. […]
the medium alone at t = 0 and 120 minutes.
For the determination of phase I and phase II activity of hepatocytes, 7-ethoxycoumarin (7-EC) 1 µM, and 7-hydroxycoumarin (7-HC) 30 µM were used as positive controls and incubated under the same conditions as fexinidazole. Aliquots of incubates were taken at 0, 10, 20, 30, 60 and 120 minutes and processed as fexinidazole samples.
5.4.2. Metabolite Profile Study
For metabolite profiling, fexinidazole was incubated at a concentration of 10 µM with mouse, rat, dog, monkey and human hepatocytes (300000 cells/mL for the mouse and 1 million cells/mL for the other species) in a final incubation volume of 2 mL Leibovitz L-15 […]
Aliquots of the incubation samples were taken at t = 0, 30 and 120 minutes; the metabolism was stopped by the addition of an equal volume of cold acetonitrile and the samples centrifuged at 1500 rpm for 20 min. The supernatant was stored at -20°C until analysis. Control incubations were performed with the compound in the medium alone […]
5.5. Analysis of Samples for Intrinsic Clearance Determination
The analysis of the samples for intrinsic clearance determination was performed by an LC-MS/MS method, using the following conditions:
HPLC Equipment and Conditions
HPLC system Agilent 1100 binary pump (Agilent, Palo Alto, USA)
Autosampler CTC Pal (Alfatech, San Jose, USA)
Analytical column Guard Column SB-C8 4.6 x 12.5 mm, 5 µm (Zorbax)
Column temperature ambient
Mobile phase A 10 mM ammonium formate pH 4.0: acetonitrile (95:5, v:v)
Mobile phase B 10 mM ammonium formate pH 4.0: acetonitrile (5:95, v:v) […]
Gradient conditions Step Total time (min) flow (µL/min) %A % B […]
MS Equipment and Conditions
Mass spectrometer API 4000 Triple Quadrupole (MDS-Sciex, Toronto, […]
Source Turbo Ion Spray (TIS)
Ion mode Positive for fexinidazole and 7-EC.
Negative for 7-HC, 7-HC sulphate and 7-HC glucuronide.

[2] = dog, plasma, fexinidazole 1 mg/kg IV, male Beagle dogs, read-out: Cmax (C0.083 for parent)
[3] = male, Beagle, dog, plasma, fexinidazole 1 mg/kg IV
[4] = male, Beagle, dog, plasma, fexinidazole 10 mg/kg oral
[5] = male, Beagle, dog, plasma, fexinidazole 10 mg/kg oral, read-out: Cmax
[6] = dog, oral 10 mg/kg vs IV 1 mg/kg

| Compound | Cmax [1, 2] [ng/mL] | Tmax [1, 3] [h] | AUC(0-t) [1, 3] [ng·h/mL] | Tmax [1, 4] [h] | AUC(0-t) [1, 4] [ng·h/mL] | Cmax [1, 5] [ng/mL] | % of total drug related material (monkey hepatocytes; 30 min) [%] | % of total drug related material (monkey hepatocytes; 120 min) [%] | AUC(0-inf) [1, 3] [ng·h/mL] | half-life [1, 3] [h] | AUC(0-inf) [1, 4] [ng·h/mL] | half-life [1, 4] [h] | % of total drug related material (monkey hepatocytes; t=0) [%] | clinical signs ([1]; 1 mg/kg IV and 10 mg/kg oral) | F% AUC0-t(last) [1, 6] | F% AUC0-∞ [1, 6] [%] | clearance ([1]; male, Beagle, dog, plasma, 1 mg/kg IV) [mL/min/kg] | Vd ([1]; male, Beagle, dog, plasma, 1 mg/kg IV, read-out: Vss) [L/kg] |
| --- | --- | --- | --- | --- | --- | --- | --- | --- | --- | --- | --- | --- | --- | --- | --- | --- | --- | --- |
| Cn1c([N+](=O)[O-])cnc1COc1ccc(S(C)(=O)=O)cc1 [Fexinidazole sulfone] | 681 ± 162 | 4.67 | 5270 ± 1230 | 6.67 | 44700 ± 3810 | 3260 ± 762 | 40 | 58 | – | – | – | – | – | – | – | – | – | – |
| Cn1c([N+](=O)[O-])cnc1COc1ccc([S+](C)[O-])cc1 (stereo not drawn) [Fexinidazole sulfoxide] | 763 ± 45.3 | 0.194 | 1480 ± 197 | 1.17 | 8560 ± 767 | 1900 ± 186 | 60 | 42 | 1520 ± 208 | 1.16 | 8780 ± 895 | 5.72 | 47 | – | – | – | – | – |
| CSc1ccc(OCc2ncc([N+](=O)[O-])n2C)cc1 [Fexinidazole, 1-methyl-2-((p-(methylthio)phenoxy)methyl)-5-nitroimidazole] | 320 ± 136 | – | 66.9 ± 31.8 | 0.667 | 57.2 ± 13.4 | 24.2 ± 5.86 | – | – | 70.6 ± 33.8 | 0.406 | 85.3 ± 1.27 | 1.93 | 53 | No significant treatment related clinical signs | 10% and 9.60 ±4.32% | 14.1 | 273 | 3.26 |
